Test results published in US20120251551A1, “Substituted (Heteroarylmethyl)thiohydantoins” (BAYER PHARMA AKTIENGESELLSCHAFT, priority 2009, published 2012).
Numbering of substitutions follows the chain as printed.

Tests used:
[1] = Determination of metabolic stability in vitro (calculation of hepatic in vivo blood clearance); format: in vitro ADME; settings: pH 7.4, human liver microsomes, calculated from half-life, read-out: calculated hepatic in vivo blood clearance (CL) (converted)
Method: Determination of Metabolic Stability In Vitro (Including Calculation of Hepatic In Vivo Blood Clearance (CL) and of Maximal Oral Bioavailability (Fmax))
The metabolic stability of test compounds in vitro was determined by incubating them at 1 μM with a suspension of human liver microsomes in 100 mM phosphate buffer, pH7.4 (NaH2PO4×H2O+Na2HPO4×2H2O) at a protein concentration of 0.5 mg/ml and at 37° C. The reaction was activated by adding a co-factor mix containing 1.2 mg NADP, 3 IU glucose-6-phosphate dehydrogenase, 14.6 mg glucose-6-phosphate and 4.9 mg MgCl2 in phosphate buffer, pH 7.4. Organic solvent in the incubations was limited to <0.2% dimethylsulfoxide (DMSO) and <1% methanol. During incubation, the microsomal suspensions were continuously shaken and aliquots were taken at 2, 8, 16, 30, 45 and 60 min, to which equal volumes of cold methanol were immediately added. Samples were freezed at −20° C. over night, subsequently centrifuged for 15 minutes at 3000 rpm and the supernatant was analyzed with an Agilent 1200 HPLC-system with LCMS/MS detection.
The half-life of a test compound was determined from the concentration-time plot. From the half-life the intrinsic clearances were calculated. Together with the additional parameters liver blood flow, specific liver weight and microsomal protein content the hepatic in vivo blood clearance (CL) and the maximal oral bioavailability (Fmax) were calculated for the different species. The following parameter values were used: Liver blood flow—1.3 l/h/kg human; specific liver weight—21 g/kg human; microsomal protein content—40 mg/g.
With the described assay only phase-I metabolism of microsomes is reflected, e.g. typically oxidoreductive reactions by cytochrome P450 enzymes and flavin mono-oxygenases (FMO) and hydrolytic reactions by esterases (esters and amides).

[2] = target: T1, wild-type human androgen receptor (Homo sapiens, UniProt P10275); assay: Cell-based transactivation assay for wild-type human androgen receptor (PC-3 cells, MMTV-luciferase reporter)
T1 construct: expressed in transfected cells
T1 sequence (P10275 1-920): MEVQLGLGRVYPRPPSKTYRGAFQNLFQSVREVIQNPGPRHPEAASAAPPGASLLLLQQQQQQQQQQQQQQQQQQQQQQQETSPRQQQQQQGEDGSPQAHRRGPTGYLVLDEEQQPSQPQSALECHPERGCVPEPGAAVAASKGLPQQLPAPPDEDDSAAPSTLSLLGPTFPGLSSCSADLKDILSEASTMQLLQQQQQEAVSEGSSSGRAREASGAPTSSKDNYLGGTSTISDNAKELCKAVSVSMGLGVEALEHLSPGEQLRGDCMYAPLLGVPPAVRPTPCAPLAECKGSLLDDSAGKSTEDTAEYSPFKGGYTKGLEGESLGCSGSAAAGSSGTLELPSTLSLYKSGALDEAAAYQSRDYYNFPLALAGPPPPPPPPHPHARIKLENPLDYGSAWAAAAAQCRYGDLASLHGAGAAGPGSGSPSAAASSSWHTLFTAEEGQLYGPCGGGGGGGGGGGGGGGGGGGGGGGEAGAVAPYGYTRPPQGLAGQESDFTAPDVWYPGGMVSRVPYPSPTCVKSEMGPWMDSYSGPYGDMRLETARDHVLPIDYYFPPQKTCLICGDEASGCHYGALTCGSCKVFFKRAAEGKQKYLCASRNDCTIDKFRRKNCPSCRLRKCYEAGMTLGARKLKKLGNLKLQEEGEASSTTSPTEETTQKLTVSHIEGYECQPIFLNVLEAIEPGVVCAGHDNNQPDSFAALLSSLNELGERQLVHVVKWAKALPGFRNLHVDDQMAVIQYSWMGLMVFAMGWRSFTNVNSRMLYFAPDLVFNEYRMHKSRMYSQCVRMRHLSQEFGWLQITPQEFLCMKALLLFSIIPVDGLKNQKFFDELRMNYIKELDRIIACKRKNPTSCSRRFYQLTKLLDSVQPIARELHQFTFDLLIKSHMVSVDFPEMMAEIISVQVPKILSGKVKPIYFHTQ
Method: Cell-Based Transactivation Assay for Wild-Type Human Androgen Receptor
PC-3 cells (Kaighn et al., Invest. Urol. 17:16-23, 1979) stably transfected with the human androgen receptor (Swiss-Prot Acc. No. P10275, Entry Version 159, Sequence Version 2) and a reporter plasmid based on pGL4.14 (#E6691, Promega Corporation, Madison, Wis., USA) containing the MMTV promoter (Cato et al., EMBO J. 6:363-8, 1987) were used. They were grown in 5% charcoal-stripped medium and seeded at a concentration of 1000 cells per well in a 384-well plate. For determination of antagonistic activity, the plate additionally contained the compound to be tested at a concentration range varying from 5.12×10^−12 to 1×10^−5 M. The assay was performed in presence of 1×10^−10 R1881 (also known as methyltrienolone). After overnight incubation at 37° C. in a 5% CO2 atmosphere, 15 μl of Steady Glo Lysis and Detection reagent (Steady Glo Luciferase assay system E2550 from Promega Corporation. Madison, Wis., USA) were added. IC50 was calculated for anti-androgenic activity as well as percentage inhibition in presence of 2 μM compound in comparison to non-stimulated luciferase signal. Agonistic activity was determined using the same concentration range of compound in the absence of R1881 by measuring Luciferase activity as above. EC50 was calculated for androgenic activity. Assay/read plates were used (Polystyrol; 384, NV-white cell culture plates; Perkin Elmer).

[3] = target: T2, human androgen receptor W741L mutant (Homo sapiens, UniProt P10275, W742L); assay: Cell-based transactivation assay for human androgen receptor mutant W741L
T2 construct: expressed in transfected cells; host or cells: PC-3 cells, transient transfection with a pSG5-derived plasmid
T2 sequence (P10275 1-920 W742L): T1 sequence (P10275 1-920) with W742L
Method: (§1) Cell-Based Transactivation Assay for Human Androgen Receptor Mutant W741L or W741C
(§2) PC-3 cells (Kaighn et al., Invest. Urol. 17:16-23, 1979) were grown in 5% charcoal-stripped medium and seeded at a concentration of 10000 cells per well in a 96-well plate. They were transiently transfected with a pSG5-derived plasmid (#216201 from Stratagene, La Jolla, Calif., USA) coding for the human androgen receptor W741L or W741C mutant Mara et al., Cancer Research, 63: 149-153, 2003) and an MMTV-Luciferase reporter plasmid based on pGL4.14 14 (#E6691, Promega Corporation, Madison, Wis., USA). The compound to be tested was added at a concentration range varying from 1×10^−9 to 1×10 M together with 1×10^−10 R1881. After 24 h incubation at 37° C. in a 5% CO2 atmosphere, 100 μl of Steady Glo Lysis and Detection reagent (Steady Glo Luciferase assay system E2550 from Promega Corporation. Madison, Wis., USA) were added. Antagonistic activity was determined by measuring Luciferase activity in a Victor 3 Luminometer (PerkinElmer, Waltham, Mass., USA) using the Steady Glo Luciferase Assay (E2550, Promega). IC50 values were calculated for anti-androgenic activity.

[4] = target: T3, human androgen receptor W741C mutant (Homo sapiens, UniProt P10275, W742C); assay: Cell-based transactivation assay for human androgen receptor mutant W741C
T3 construct: expressed in transfected cells; host or cells: PC-3 cells, transient transfection with a pSG5-derived plasmid
T3 sequence (P10275 1-920 W742C): T1 sequence (P10275 1-920) with W742C
Method: as §1, §2

LNCaP cells = assay: Proliferation assay with LNCaP cells; format: cell-based; settings: Homo sapiens, 168 h, R1881 (1×10^−10) stimulated growth, day 7, read-out: inhibition IC50 (LNCaP)
Method: Proliferation Assay with LNCaP Cells
LNCaP cells (Horoszewicz et al., in “Models for Prostate Cancer” (ed. G. P. Murphy), Alan R. Liss, New York 1981, p. 115-132; Horoszewicz et al., Cancer Res. 43:1809-1818, 1983) were seeded at 2000 cells/well in 96-well plates in RPMI (F1235, Biochrom AG, Berlin, Germany) without phenol red supplemented with 5% charcoal-stripped serum. After 3 days, the cells were treated with R1881) (1×10^−10) and compound (day 0). Cell number was determined by Alamar Blue (DAL1100, Invitrogen, Life Technologies, Lohne, Germany) staining (2.5 h) at day 0 and day 7. Fluorescence was determined in Victor3 (Excitation 530 nm; emission 590 nm). Stimulated growth was defined as the signal measured at day 7 for cells treated only with R1881. Basal level was defined as the signal measured at day 7 for cells grown without R1881.

VCaP cells = assay: Proliferation assay with VCaP cells; format: cell-based; settings: Homo sapiens, 168 h, R1881 (1×10^−10) stimulated growth, day 7, read-out: Antiproliferative activity VCaP IC50
Method: Proliferation Assay with VCaP Cells
VCaP cells ((Korenchuk et al., In Vivo 15: 163-168, 2001)) were seeded at 16 000 cells/well in 96-well plates in DMEM (F0445, Biochrom AG, Berlin, Germany) with phenol red supplemented with 10% charcoal-stripped serum. After 1 day, the cells were treated with R1881 (1×10^−10) and compound (day 0). Cell number was determined by Alamar Blue (DAL1100, Invitrogen, Life Technologies, Lohne, Germany) staining (2.5 h) at day 0 and day 7. Fluorescence was determined in Victor3 (Excitation 530 nm; emission 590 nm). Stimulated growth was defined as the signal measured at day 7 for cells treated only with R1881. Basal level was defined as the signal measured at day 7 for cells grown without R1881.

SMILES | CLhep predicted at 1 µM [1] | EC50 [2] | IC50 [3] | IC50 [4] | IC50 (LNCaP cells) | IC50 (VCaP cells)
CC1(C)C(=O)N(c2ccc(C#N)c(C(F)(F)F)c2)C(=S)N1Cc1cnc(-n2ccnc2)nc1 [Example 17, 4-(3-{[2-(1H-Imidazol-1-yl)pyrimidin-5-yl]methyl}-4,4-dimethyl-5-oxo-2-thioxoimidazolidin-1-yl)-2-(trifluoromethyl)benzonitrile] | 1.5 mL/min/kg | > 10 µM | 20.6 nM |  |  | 
Cn1nccc1-c1ccc(CN2C(=S)N(c3ccc(C#N)c(C(F)(F)F)c3)C(=O)C2(C)C)cn1 [Example 20, 4-(4,4-Dimethyl-3-{[6-(1-methyl-1H-pyrazol-5-yl)pyridin-3-yl]methyl}-5-oxo-2-thioxoimidazolidin-1-yl)-2-(trifluoromethyl)benzonitrile] |  | > 10 µM | 233 nM | 99.9 nM | 46 nM | 
Cn1cc(-c2ccc(CN3C(=S)N(c4ccc(C#N)c(C(F)(F)F)c4)C(=O)C3(C)C)cn2)cn1 [Example 18, 4-(4,4-Dimethyl-3-{[6-(1-methyl-1H-pyrazol-4-yl)pyridin-3-yl]methyl}-5-oxo-2-thioxoimidazolidin-1-yl)-2-(trifluoromethyl)benzonitrile] | 1.83 mL/min/kg | 9.57 µM | 94.6 nM |  | 117 nM | 
Cc1nc(Cl)cn1-c1ccc(CN2C(=S)N(c3ccc(C#N)c(C(F)(F)F)c3)C(=O)C2(C)C)cn1 [Example 21, 4-(3-{[6-(4-Chloro-2-methyl-1H-imidazol-1-yl)pyridin-3-yl]methyl}-4,4-dimethyl-5-oxo-2-thioxoimidazolidin-1-yl)-2-(trifluoromethyl)benzonitrile] | 6.67 mL/min/kg | > 10 µM | 296 nM |  |  | 
CC1(C)C(=O)N(c2ccc(C#N)c(C(F)(F)F)c2)C(=S)N1Cc1ccc(-n2cnc(C(F)(F)F)c2)nc1 [Example 23, 4-[4,4-Dimethyl-5-oxo-2-thioxo-3-({6-[4-(trifluoromethyl)-1H-imidazol-1-yl]pyridin-3-yl}methyl)imidazolidin-1-yl]-2-(trifluoromethyl)benzonitrile] |  | > 10 µM | 83 nM | 148 nM | 160 nM | 340 nM
CC1(C)C(=O)N(c2ccc(C#N)c(C(F)(F)F)c2)C(=S)N1Cc1ccc(-c2cccs2)nc1 [Example 24, 4-(4,4-Dimethyl-5-oxo-3-{[6-(thien-2-yl)pyridin-3-yl]methyl}-2-thioxoimidazolidin-1-yl)-2-(trifluoromethyl)benzonitrile] | 6.67 mL/min/kg | > 10 µM | 202 nM |  |  | 
Cc1cn(-c2ccc(CN3C(=S)N(c4ccc(C#N)c(C(F)(F)F)c4)C(=O)C3(C)C)cn2)cn1 [Example 19, 4-(4,4-Dimethyl-3-{[6-(4-methyl-1H-imidazol-1-yl)pyridin-3-yl]methyl}-5-oxo-2-thioxoimidazolidin-1-yl)-2-(trifluoromethyl)benzonitrile] |  | > 10 µM | 201 nM | 52.9 nM | 96 nM | 
